Columns and labels:
mice given high-fat diet = assay: High-fat diet-induced accumulation of visceral fat (Example 5); format: in vivo, mouse; settings: Group 4 (high-fat diet+flurbiprofen) vs Group 2; 10 mg/kg per day orally, 8 weeks; significance level <5%
Protocol: 4 weeks-old mice (C57BL/6 Cr Slc) were divided into four groups each consisting of 7-8 mice. Mice of individual groups were given diets as follows for 8 weeks similarly with Example 4. • Group 1: Normal diet (10 kcal % fat) only • Group 2: High-fat diet (60 kcal % fat) only • Group 3: Normal diet+flurbiprofen • Group 4: High-fat diet+flurbiprofen Flurbiprofen (F8514, produced by SIGMA) was diluted with drinking water so that the administration amount of flurbiprofen would be 10 mg/kg per day, and was orally administered to the mice in the form of drinking water. The mice raised for 8 weeks with high-fat diet or normal diet were cut open along a median line, and the amount of fatty tissue (visceral fat) was measured. Visceral fat was extracted from the abdomen of a mouse, and wet weight of the fat was measured. […] FIG. 9 is a graph showing the amounts of fat contents of mice of individual groups to which flurbiprofen had been administered for 8 weeks. Values in the graph of FIG. 9 are averages of the amounts (g) of fat of mice of each group (± their standard deviations) (n=7-8 with respect to each group). Further, statistic analysis was carried out using t-test.

GRP78 and CHOP = settings: described in Patent Literature 1; cited from earlier work

## C[C@@H](C(=O)O)c1ccc(-c2ccccc2)c(F)c1 [flurbiprofen]
Mice given high-fat diet
  amount of fat content (visceral fat, wet weight): significant decrease in the amount of fat content
GRP78 and CHOP
  expression of GRP78 and CHOP induced by endoplasmic reticulum stress: prevented

From patent US9132108B2, “Pharmaceutical composition for ameliorating and/or preventing leptin resistance, and use thereof” (HIROSHIMA UNIVERSITY, priority 2009, dated 2015)
